Data reported in patent publication US4847375A, “Antibacterial 1,8-bridged 4-quinoline-3-carboxylic acids” (Bayer Aktiengesellschaft, priority 1985, dated 1989).
Converted amounts (≈) assume the structure as drawn.

Tests used:
Assay in all cases: MIC, agar dilution test
Assay type in all cases: cell-based
[1] = system: E. coli A 261; details: Escherichia coli, A261, Isosensitest medium, Denley multipoint inoculator
Text: (§1) Agar dilution test (Isosensitest medium); Denley multi-

[2] = system: E. coli Neumann; details: Escherichia coli, Isosensitest medium, Denley multipoint inoculator
Text: as §1

[3] = system: E. coli T 7; details: Escherichia coli, T7, Isosensitest medium, Denley multipoint inoculator
Text: as §1

[4] = system: Klebsiella 8085; details: Isosensitest medium, Denley multipoint inoculator
Text: as §1

SMILES | MIC [1] [µg/mL] | MIC [2] [µg/mL] | MIC [3] [µg/mL] | MIC [4] [µg/mL]
CC1(C)COc2c(N3CCNCC3)c(F)cc3c(=O)c(C(=O)O)cn1c23 [Example 7] | 0.125 (≈ 0.346 µM) | 1 (≈ 2.77 µM) | 0.5 (≈ 1.38 µM) | 0.25 (≈ 0.692 µM)
CN1CCN(c2c(F)cc3c(=O)c(C(=O)O)cn4c3c2OC2CCCC24)CC1 (centres unmarked) [Example 3] | 2 (≈ 5.16 µM) | 2 (≈ 5.16 µM) | 2 (≈ 5.16 µM) | 2 (≈ 5.16 µM)
